Measured values from article PMC6757289, “Design and Characterization of SGK3-PROTAC1, an Isoform Specific SGK3 Kinase PROTAC Degrader” (ACS Chemical Biology, 2019).
Like-named read-outs stand apart in the source and are kept apart here.

What was measured:
Test in all cases: kinase profiling panel
Format in all cases: biochemical
Settings in all cases: read-out: % Activity Remaining
CHK1 = target: T1, CHK1 (Homo sapiens, UniProt O14757)
T1 sequence (O14757 1-476): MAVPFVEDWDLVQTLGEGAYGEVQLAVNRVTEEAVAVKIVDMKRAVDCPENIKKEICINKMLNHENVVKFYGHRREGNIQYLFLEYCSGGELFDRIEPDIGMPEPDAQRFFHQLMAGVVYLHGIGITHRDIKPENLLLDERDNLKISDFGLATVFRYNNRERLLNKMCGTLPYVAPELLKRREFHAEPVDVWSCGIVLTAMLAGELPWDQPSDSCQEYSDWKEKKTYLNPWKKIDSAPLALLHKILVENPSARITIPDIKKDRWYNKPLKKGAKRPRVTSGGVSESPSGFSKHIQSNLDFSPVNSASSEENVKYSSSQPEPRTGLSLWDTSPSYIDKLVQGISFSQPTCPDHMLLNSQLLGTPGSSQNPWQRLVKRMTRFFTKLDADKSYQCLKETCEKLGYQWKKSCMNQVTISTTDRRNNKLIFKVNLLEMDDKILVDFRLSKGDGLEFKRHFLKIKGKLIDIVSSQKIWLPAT
Text: (§1) Protein kinase profiling against a Dundee panel of 140 protein kinases was undertaken at the International Centre for Protein Kinase Profiling. The result for each kinase was presented as a mean kinase activity of the reaction taken in triplicate relative to a control sample treated with DMSO. Assay conditions and abbreviations are available at http://www.kinase-screen.mrc.ac.uk.

EF2K = EF2K (Homo sapiens, UniProt O00418)
Text: as §1

MAP4K3 = target: T2, MAP4K3 (Homo sapiens, UniProt Q8IVH8)
T2 sequence (Q8IVH8 1-894): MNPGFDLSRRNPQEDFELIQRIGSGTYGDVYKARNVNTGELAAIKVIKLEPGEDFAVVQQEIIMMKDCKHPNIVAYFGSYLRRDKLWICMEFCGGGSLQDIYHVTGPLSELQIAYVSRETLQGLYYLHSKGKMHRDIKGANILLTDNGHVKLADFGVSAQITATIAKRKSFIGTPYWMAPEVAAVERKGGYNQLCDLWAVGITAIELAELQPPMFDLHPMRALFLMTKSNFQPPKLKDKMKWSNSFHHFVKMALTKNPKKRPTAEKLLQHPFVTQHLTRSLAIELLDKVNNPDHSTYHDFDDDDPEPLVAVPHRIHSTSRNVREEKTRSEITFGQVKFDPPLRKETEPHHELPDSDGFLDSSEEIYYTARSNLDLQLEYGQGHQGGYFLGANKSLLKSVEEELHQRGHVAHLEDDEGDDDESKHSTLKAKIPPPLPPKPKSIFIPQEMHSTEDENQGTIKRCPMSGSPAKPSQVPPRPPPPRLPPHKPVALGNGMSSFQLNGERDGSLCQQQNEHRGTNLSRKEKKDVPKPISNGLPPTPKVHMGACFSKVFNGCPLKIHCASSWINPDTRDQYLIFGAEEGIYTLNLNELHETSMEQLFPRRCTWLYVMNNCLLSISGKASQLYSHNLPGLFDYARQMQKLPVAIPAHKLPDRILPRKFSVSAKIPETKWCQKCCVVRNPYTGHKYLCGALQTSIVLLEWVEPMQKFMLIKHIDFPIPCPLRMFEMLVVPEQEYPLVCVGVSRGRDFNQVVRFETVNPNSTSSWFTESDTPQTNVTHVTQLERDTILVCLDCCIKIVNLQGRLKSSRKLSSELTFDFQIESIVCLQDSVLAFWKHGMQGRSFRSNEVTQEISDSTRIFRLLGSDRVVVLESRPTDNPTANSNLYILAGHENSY
Text: as §1

DYRK2 = target: T3, DYRK2 (Homo sapiens, UniProt Q92630)
T3 sequence (Q92630 1-601): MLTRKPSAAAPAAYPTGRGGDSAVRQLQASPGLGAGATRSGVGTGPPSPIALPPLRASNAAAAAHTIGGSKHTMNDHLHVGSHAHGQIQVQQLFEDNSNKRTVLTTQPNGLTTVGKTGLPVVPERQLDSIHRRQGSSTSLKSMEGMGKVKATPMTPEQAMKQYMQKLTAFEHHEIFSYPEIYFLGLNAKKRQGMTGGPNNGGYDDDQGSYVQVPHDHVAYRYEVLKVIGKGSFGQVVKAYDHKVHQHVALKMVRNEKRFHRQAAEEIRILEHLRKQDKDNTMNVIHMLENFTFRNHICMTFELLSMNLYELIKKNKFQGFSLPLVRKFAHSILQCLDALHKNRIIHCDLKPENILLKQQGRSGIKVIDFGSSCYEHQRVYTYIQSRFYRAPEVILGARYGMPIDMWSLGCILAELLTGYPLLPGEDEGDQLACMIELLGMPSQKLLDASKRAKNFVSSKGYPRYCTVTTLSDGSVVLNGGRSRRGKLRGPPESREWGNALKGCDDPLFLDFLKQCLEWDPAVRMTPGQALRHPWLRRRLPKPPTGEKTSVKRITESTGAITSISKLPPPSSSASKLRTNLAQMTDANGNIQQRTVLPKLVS
Text: as §1

VEGFR1 = VEGFR1 (Homo sapiens, UniProt P17948)
Sequence of VEGFR1 (P17948 27-1338): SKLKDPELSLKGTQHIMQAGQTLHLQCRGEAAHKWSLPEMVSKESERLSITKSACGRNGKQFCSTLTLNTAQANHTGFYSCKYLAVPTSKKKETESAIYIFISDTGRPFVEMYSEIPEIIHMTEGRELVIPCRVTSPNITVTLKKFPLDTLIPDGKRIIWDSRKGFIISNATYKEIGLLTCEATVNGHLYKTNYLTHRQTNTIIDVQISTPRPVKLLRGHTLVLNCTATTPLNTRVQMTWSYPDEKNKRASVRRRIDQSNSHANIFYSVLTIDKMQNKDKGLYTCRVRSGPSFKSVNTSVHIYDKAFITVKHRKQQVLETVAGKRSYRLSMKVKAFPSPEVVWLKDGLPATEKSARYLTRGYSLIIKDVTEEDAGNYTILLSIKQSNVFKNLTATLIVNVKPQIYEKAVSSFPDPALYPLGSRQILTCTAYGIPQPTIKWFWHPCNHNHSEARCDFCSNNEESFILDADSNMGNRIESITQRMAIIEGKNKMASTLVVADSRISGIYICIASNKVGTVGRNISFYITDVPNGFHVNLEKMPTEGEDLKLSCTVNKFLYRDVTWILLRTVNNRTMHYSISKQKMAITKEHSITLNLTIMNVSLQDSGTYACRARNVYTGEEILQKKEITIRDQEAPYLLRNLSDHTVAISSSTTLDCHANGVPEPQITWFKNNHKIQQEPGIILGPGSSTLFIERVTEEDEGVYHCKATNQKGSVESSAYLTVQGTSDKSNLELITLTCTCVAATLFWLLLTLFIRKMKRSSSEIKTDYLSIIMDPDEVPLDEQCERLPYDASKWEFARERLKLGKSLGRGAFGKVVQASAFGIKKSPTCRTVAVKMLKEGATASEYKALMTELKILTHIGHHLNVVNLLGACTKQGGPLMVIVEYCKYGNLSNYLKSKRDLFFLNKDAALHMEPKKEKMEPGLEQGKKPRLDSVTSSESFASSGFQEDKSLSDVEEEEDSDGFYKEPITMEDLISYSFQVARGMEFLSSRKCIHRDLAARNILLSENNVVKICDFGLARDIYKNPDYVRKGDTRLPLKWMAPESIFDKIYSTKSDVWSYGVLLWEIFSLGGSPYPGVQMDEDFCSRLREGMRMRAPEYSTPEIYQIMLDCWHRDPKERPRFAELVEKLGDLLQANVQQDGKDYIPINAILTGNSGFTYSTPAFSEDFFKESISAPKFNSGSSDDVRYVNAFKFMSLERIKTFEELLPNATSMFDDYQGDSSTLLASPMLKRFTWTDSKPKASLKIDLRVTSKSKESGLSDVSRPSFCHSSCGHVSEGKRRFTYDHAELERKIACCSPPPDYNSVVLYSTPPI
Text: as §1

RSK2 = RSK2 (Homo sapiens, UniProt P51812)
Sequence of RSK2 (P51812 whole entry): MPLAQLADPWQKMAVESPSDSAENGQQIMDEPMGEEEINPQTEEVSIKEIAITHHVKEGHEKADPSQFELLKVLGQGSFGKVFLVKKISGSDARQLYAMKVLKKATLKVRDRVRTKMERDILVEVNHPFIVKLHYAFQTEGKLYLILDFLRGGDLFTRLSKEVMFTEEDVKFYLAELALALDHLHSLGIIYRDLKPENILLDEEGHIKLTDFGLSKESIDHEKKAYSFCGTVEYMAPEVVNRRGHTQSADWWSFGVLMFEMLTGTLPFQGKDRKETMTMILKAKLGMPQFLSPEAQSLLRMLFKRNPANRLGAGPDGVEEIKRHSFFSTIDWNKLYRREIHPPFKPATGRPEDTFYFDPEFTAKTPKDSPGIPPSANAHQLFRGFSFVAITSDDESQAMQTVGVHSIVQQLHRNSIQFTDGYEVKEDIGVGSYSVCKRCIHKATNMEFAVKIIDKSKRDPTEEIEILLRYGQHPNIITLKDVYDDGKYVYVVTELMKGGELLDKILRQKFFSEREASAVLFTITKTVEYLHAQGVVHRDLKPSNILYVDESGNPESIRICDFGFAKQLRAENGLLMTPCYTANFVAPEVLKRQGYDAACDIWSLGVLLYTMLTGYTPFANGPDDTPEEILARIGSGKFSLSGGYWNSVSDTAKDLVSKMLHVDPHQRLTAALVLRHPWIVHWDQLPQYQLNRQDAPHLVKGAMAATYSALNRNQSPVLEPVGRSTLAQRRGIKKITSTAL
Text: as §1

TGFBR1 = target: T4, TGFBR1 (Homo sapiens, UniProt P36897)
T4 sequence (P36897 34-503): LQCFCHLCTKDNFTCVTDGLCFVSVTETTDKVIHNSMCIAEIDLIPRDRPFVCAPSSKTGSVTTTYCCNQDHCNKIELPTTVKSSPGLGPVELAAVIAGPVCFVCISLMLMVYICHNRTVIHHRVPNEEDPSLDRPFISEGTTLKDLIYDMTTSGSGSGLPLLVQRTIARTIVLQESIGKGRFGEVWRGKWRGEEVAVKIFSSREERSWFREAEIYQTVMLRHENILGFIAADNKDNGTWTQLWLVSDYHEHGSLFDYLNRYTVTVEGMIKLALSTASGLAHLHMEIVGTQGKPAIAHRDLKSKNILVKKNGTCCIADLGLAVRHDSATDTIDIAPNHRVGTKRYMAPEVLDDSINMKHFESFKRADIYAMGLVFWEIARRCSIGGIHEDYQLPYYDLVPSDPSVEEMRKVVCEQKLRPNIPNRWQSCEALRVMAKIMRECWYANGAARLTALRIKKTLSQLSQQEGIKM
Text: as §1

IR = IR (Homo sapiens, UniProt P06213)
Sequence of IR (P06213 28-1382): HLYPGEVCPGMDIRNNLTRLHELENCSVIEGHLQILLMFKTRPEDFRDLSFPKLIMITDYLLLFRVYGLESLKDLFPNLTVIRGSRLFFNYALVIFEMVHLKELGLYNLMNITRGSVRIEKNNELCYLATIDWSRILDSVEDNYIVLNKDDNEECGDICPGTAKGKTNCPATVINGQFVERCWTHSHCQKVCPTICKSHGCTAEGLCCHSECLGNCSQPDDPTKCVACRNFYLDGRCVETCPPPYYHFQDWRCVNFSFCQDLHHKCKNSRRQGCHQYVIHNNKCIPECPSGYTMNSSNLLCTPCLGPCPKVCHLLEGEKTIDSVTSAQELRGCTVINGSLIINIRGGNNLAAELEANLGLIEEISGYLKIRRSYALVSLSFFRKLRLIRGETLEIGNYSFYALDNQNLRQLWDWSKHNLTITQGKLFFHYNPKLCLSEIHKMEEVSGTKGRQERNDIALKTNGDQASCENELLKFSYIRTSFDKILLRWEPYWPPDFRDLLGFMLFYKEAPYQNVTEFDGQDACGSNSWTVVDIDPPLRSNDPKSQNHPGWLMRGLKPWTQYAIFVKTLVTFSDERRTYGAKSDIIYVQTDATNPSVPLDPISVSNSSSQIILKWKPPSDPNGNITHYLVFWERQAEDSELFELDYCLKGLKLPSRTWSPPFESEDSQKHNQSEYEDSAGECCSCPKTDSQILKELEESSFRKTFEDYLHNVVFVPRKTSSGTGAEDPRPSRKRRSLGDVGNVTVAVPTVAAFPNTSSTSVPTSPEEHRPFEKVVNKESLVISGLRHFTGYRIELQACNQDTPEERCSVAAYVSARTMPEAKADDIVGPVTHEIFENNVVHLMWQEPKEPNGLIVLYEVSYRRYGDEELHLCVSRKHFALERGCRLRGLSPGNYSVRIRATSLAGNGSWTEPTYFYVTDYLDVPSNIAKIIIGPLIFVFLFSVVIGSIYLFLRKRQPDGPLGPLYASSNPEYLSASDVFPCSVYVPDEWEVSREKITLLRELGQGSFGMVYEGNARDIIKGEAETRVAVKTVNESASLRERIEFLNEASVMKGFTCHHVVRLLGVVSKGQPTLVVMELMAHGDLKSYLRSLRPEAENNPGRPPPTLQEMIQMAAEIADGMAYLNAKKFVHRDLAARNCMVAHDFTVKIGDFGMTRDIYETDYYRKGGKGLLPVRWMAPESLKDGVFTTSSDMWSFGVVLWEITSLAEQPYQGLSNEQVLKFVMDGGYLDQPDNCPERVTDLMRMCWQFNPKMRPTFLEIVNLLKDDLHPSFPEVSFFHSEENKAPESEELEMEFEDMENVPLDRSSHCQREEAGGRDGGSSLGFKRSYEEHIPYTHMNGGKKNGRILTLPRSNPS
Text: as §1

CAMK1 = CAMK1 (Homo sapiens, UniProt Q14012)
Sequence of CAMK1 (Q14012 whole entry): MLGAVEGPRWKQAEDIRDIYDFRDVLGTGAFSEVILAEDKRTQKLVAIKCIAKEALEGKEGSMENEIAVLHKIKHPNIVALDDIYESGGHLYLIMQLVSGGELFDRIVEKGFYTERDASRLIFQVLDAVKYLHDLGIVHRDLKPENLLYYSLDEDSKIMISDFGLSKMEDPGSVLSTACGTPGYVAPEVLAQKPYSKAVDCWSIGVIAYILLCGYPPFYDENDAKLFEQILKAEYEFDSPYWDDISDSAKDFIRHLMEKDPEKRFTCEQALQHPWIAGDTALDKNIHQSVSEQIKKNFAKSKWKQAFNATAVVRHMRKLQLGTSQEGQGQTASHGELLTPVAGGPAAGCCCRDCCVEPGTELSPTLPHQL
Text: as §1

SMILES | remaining activity at 1 µM (CHK1; 1 µM) | remaining activity at 1 µM (EF2K; 1 µM) | remaining activity at 1 µM (MAP4K3; 1 µM) | remaining activity at 1 µM (DYRK2; 1 µM) | remaining activity at 1 µM (VEGFR1; 1 µM) | remaining activity at 1 µM (RSK2; 1 µM) | remaining activity at 1 µM (TGFBR1; 1 µM) | remaining activity at 1 µM (IR; 1 µM) | remaining activity at 1 µM (CAMK1; 1 µM) | remaining activity at 1 µM (CHK1) | remaining activity at 1 µM (EF2K) | remaining activity at 1 µM (MAP4K3) | remaining activity at 1 µM (DYRK2) | remaining activity at 1 µM (VEGFR1) | remaining activity at 1 µM (RSK2) | remaining activity at 1 µM (TGFBR1) | remaining activity at 1 µM (IR) | remaining activity at 1 µM (CAMK1)
Cc1ccc(F)c(S(=O)(=O)Nc2ccc(-c3nc(OC[C@H]4CN(CCCCCCOCCOCCOCC(=O)N[C@H](C(=O)N5C[C@H](O)C[C@H]5C(=O)NCc5ccc(-c6scnc6C)cc5)C(C)(C)C)CCO4)c4cn[nH]c4n3)cc2)c1 [SGK3-PROTAC1] | 111% | 98% | 99% | 102% | 120% | 120% | 124% | 103% | 86% |  |  |  |  |  |  |  |  | 
Cc1ccc(F)c(S(=O)(=O)Nc2ccc(-c3nc(OC[C@H]4CNCCO4)c4cn[nH]c4n3)cc2)c1 [308-R, reference compound] |  |  |  |  |  |  |  |  |  | 109% | 128% | 8% | 74% | 95% | 24% | 120% | 110% | 22%
COc1ccc(Cl)c(S(=O)(=O)Nc2ccc(-c3nc(OC[C@H]4CNCCO4)c4c(C)n[nH]c4n3)cc2)c1 [290-R, reference compound] |  |  |  |  |  |  |  |  |  | 95% | 112% | 2% | 100% | 82% | 24% | 120% | 102% | 3%
Cc1ccc(F)c(S(=O)(=O)Nc2ccc(-c3nc(OC[C@H]4CN(CCCCCCOCCOCCOCC(=O)N[C@H](C(=O)N5C[C@@H](O)C[C@H]5C(=O)NCc5ccc(-c6scnc6C)cc5)C(C)(C)C)CCO4)c4cn[nH]c4n3)cc2)c1 [cisSGK3-PROTAC1] | 126% | 105% | 95% | 97% | 103% | 109% | 114% | 94% | 105% |  |  |  |  |  |  |  |  | 
